From patent publication US11202792B2, “CD99 inhibitors and their uses” (GEORGETOWN UNIVERSITY, priority 2016, dated 2021)
Where two headings read alike, the source gives them in different places.

Legend:
[1] = tested on: SAOS-2 OS cells; test: Cell viability IC50, SAOS-2; type: cell-based; conditions: Homo sapiens
Procedure: (§1) The plate was installed into the RTCA system, and the electrical impedance (represented as cell index) was measured every 10 min.
(§2) To investigate the relationship between the level of CD99 expression and drug sensitivity, the endogenous expression of CD99 was determined in a panel of 9 ES and 13 non-ES cell lines. The recombinant purified CD99-ECD protein was used to generate standard curves for immunoquantification of CD99 expression by immunoblotting (FIGS. 6B and 6C).

[2] = tested on: TC-CD99-shRNA #2 cells; conditions: mean ± SD
Procedure: as §1
(§3) TC-CD99-shRNA clones (TC-CD99-shRNA #1 and TC-CD99-shRNA #2) were established after selection in neomycin (500 μg/ml) (Sigma-Aldrich). The expression of DCK and CD99 was suppressed transiently by using a validated small interfering RNA (siRNA) duplexes targeting coding region (Invitrogen (Carlsbad, Calif.); #s186 and #s8768, respectively). Silencer™ Select Negative Control No. 2 siRNA (Invitrogen) was used as the control. Cells were transfected with DCK or CD99 or control siRNA oligonucleotides using X-tremeGene siRNA transfection reagent (Roche Diagnostics (Basel, Switzerland)) according to the manufacturer's protocol. The cells were analyzed for DCK and CD99 knockdown after 45 or 72 h by immunoblotting.
(§4) Two stable transfectants of TC-71 cell line, TC-CD99-shRNA #1 and TC-CD99-shRNA #2, were generated by using plasmids expressing either a shRNA targeting the 3′ untranslated region (UTR) of CD99 or a scrambled shRNA control.

[3] = tested on: TC-CD99-shRNA #1 cells; conditions: mean ± SD
Procedure: as §1, §3, §4

[4] = tested on: SK-N-MC ES cells; test: Cell viability IC50, SK-N-MC; type: cell-based; conditions: Homo sapiens
Procedure: as §1, §2

[5] = tested on: CD99-transfected SAOS-2 and U-2 OS cells; test: Real-time proliferation (xCELLigence) of OS cells with forced CD99 expression; type: cell-based, human; conditions: dose-dependent
Procedure: U-2 OS and SAOS-2 cells were transfected with pcDNA3.1 expression vector carrying the human full-length CD99 transcript variant 1 cDNA using the X-tremeGene 9 DNA transfection reagent (Roche Diagnostics) according to the manufacturer's recommendations. The expression of CD99 was assessed after 48 h by immunoblotting.
OS cells express low levels of CD99 and the forced ectopic expression of CD99 reduces their growth. To test whether cladribine can rescue the reduced proliferation phenotype induced by overexpression of CD99, U-2 OS and SAOS-2 cells were transiently transfected with a mammalian expression vector containing cDNA encoding full length human CD99. As expected, CD99-forced expression suppressed cell proliferation compared with empty-vector transfected cells, which was rescued by the addition of cladribine in a dose-dependent manner (FIGS. 7C-D and FIG. 9).

[6] = tested on: MG63 OS cells; test: Cell viability IC50, MG63; type: cell-based; conditions: Homo sapiens, MG-63
Procedure: as §1, §2

[7] = tested on: U-2 OS cells; test: Cell cycle analysis by flow cytometry, OS cells; type: cell-based, human; conditions: 48 h, U-2 OS compared with ES cells
Procedure: For the evaluation of cell cycle, cell cultures were incubated with 10 μmol/L bromodeoxyuridine (BrdU) (Sigma-Aldrich) for 1 h in a CO2 atmosphere at 37° C. Harvested cells were fixed in ice-cold 70% ethanol for 30 min. After DNA denaturation with 2 N HCl for 30 min at room temperature, cells were washed with 0.1 M Na2B4O7, pH 8.5 and processed for indirect immunofluorescence staining, using α-BrdU (BD Biosciences (San Jose, Calif.)) diluted 1:4 as a primary MAb and α-mouse FITC (1:100—Thermo Scientific (Waltham, Mass.)) as a secondary antibody. After treatment with 0.5 mg/ml RNase and staining with 20 μg/ml propidium iodide, cells were and analyzed by flow cytometry (FACSCalibur; Becton Dickinson (Franklin Lakes, N.J.)) for cell cycle evaluation and for assessing cell death by DNA content analysis.

[8] = tested on: 6647 ES cells; test: Cell viability IC50, 6647; type: cell-based; conditions: Homo sapiens
Procedure: as §1, §2

[9] = tested on: A673 ES cells; test: Cell viability IC50, A673; type: cell-based; conditions: Homo sapiens
Procedure: as §1, §2

[10] = tested on: TC-CD99-shRNA #1 cells; test: Soft agar colony formation assay, CD99 knockdown cells; type: cell-based, human
[11] = tested on: MG63.3 OS cells transfected with DCK siRNA; test: Response to clofarabine after DCK siRNA, OS cells; type: cell-based, human; conditions: MG63.3, DCK siRNA
[12] = tested on: TC-71 xenografts; test: Orthotopic TC-71 xenograft, oral administration; type: in vivo, SCID/beige mice
Procedure: All tumor tissues were fixed in 10% neutral buffered formalin for 24 h, dehydrated through a graded series of alcohols and cleared in xylenes prior to embedding in paraffin. Embedded tissues were cut into 5 μm thick sections and stained with hematoxylin and eosin (H&E). Immunohistochemical staining was performed for CD99 and caspase 3 (cleaved). Five micron sections from formalin fixed paraffin embedded tissues were de-paraffinized with xylenes and rehydrated through a graded alcohol series. Heat induced epitope retrieval was performed by immersing the tissue sections at 98° C. for 60 min in 10 mmol/L citrate buffer (pH 6.0). Immunohistochemical staining was performed using a horseradish peroxidase labeled polymer from Agilent (Santa Clara, Calif.) (#K4001, #K4003) according to manufacturer's instructions. Briefly, slides were treated with 3% hydrogen peroxide and 10% normal goat serum for 10 min each, and exposed to primary antibodies for CD99 (Abcam, #ab8855) at a 1:100 dilution and for caspase 3 (cleaved) (Biocare (Pacheco, Calif.), #CP229A) at a 1:90 dilution in Da Vinci Green for one hour and stained on an DAKO Autostainer. Slides were exposed to the appropriate HRP labeled polymer for 30 min and DAB chromogen (Dako (Santa Clara, Calif.) for 5 min. Slides were counterstained with Hematoxylin (Fisher, Harris Modified Hematoxylin), blued in 1% ammonium hydroxide, dehydrated, and mounted with Acrymount. Consecutive sections with the primary antibody omitted were used as negative controls. The sections were evaluated in a blinded fashion by a board certified pathologist.
In this study, reduction in number of mitotic figures and increase in caspase-3 staining was less prominent. […] Therefore, when the animals were euthanized for tumor regrowth they were not receiving any clofarabine. Their last dose of clofarabine was more than two week before the tissue harvest.

[13] = tested on: TC-32 ES cells transfected with DCK siRNA; test: Response to clofarabine after DCK siRNA, ES cells; type: cell-based, human; conditions: TC-32, DCK siRNA

| SMILES | IC50 [1] [µM] | Fold changes in IC50 compared with TC-71 parental cells [2] | Fold changes in IC50 compared with TC-71 parental cells [3] | IC50 [4] [µM] | IC50 [6] [µM] | IC50 [8] [µM] | IC50 [9] [µM] | further results |
| --- | --- | --- | --- | --- | --- | --- | --- | --- |
| Nc1nc(Cl)nc2c1ncn2[C@H]1C[C@H](O)[C@@H](CO)O1 [cladribine] | > 30 | 2.35 | 2.85 | 0.68 | > 30 | 0.71 | 7.42 | Fold changes in IC50 compared with TC-71 parental cells ([2]; listed as Cladribine): 2.35 ± 1.43 (n = 2); Fold changes in IC50 compared with TC-71 parental cells ([3]; listed as Cladribine): 2.85 ± 1.13 (n = 4); rescue of reduced cell proliferation induced by CD99 expression [5]: rescued; cell cycle effect [7]: more pronounced |
| Nc1nc(Cl)nc2c1ncn2[C@@H]1O[C@H](CO)[C@@H](O)[C@@H]1F [clofarabine] | > 30 | 1.63 | 3.70 | 0.17 | > 10 | 0.34 | 1.9 | colony formation in CD99 knockdown cells [10]: did not result in further decrease; response after inhibiting DCK protein expression [11]: complete resistance; Fold changes in IC50 compared with TC-71 parental cells ([2]; listed as Clofarabine): 1.63 ± 0.54 (n = 5); Fold changes in IC50 compared with TC-71 parental cells ([3]; listed as Clofarabine): 3.70 ± 2.98 (n = 5); mitotic figures ([12]; TC-71 xenograft harvested after 2 days of 30 mg/kg oral): complete loss; apoptotic cells ([12]; TC-71 xenograft harvested after 2 days of 30 mg/kg oral, H&E, caspase-3): significant increase; phosphorylation levels of MSK1/2 in tumors ([12]; TC-71 xenograft, oral 30 mg/kg for two days, three out of four mice): significant increase; tumor growth ([12]; TC-71 xenograft, 30 mg/kg orally once daily 14 days, compared to i.p. administration): more significant inhibition of tumor growth; median event-free survival ([12]; TC-71 xenograft, 30 mg/kg orally once daily for 14 days, vehicle 7 days, p<0.0001): 33 days; response after inhibiting DCK protein expression [13]: shift to the right of the IC50 curve |
